Source: ChEMBL document CHEMBL5385862, “Acyloxymethyl and alkoxycarbonyloxymethyl prodrugs of a fosmidomycin surrogate as antimalarial and antibacterial agents” (Eur J Med Chem, 2023)

Key:
Plasmodium falciparum = assay: Antiplasmodial activity against asexual blood stage Plasmodium falciparum K1 assessed as inhibition of parasitic growth; type: functional, organism-based
[1] = system: Mycobacterium tuberculosis; assay: Antitubercular activity against Mycobacterium tuberculosis H37Ra assessed as inhibition of bacterial growth; type: functional, organism-based
Acinetobacter baumannii = assay: Antibacterial activity against Acinetobacter baumannii assessed as inhibition of bacterial growth; type: functional, organism-based
[2] = Cytotoxicity against human MRC5 cells assessed as reduction in cell viability; type: toxicity, cell-based
[3] = Selectivity index ratio of CC50 for cytotoxicity against human MRC5 cells to IC50 for antiplasmodial activity against asexual blood stage Plasmodium falciparum K1 assessed as inhibition of parasitic growth; type: toxicity, cell-based; conditions: read-out: Ratio CC50/IC50
[4] = Selectivity index ratio of CC50 for cytotoxicity against human MRC5 cells to IC50 for antibacterial activity against Acinetobacter baumannii assessed as inhibition of bacterial growth; type: toxicity, cell-based; conditions: read-out: Ratio CC50/IC50

Structure (SMILES)	IC50 (Plasmodium falciparum)	IC50 [1]	IC50 (Acinetobacter baumannii)	CC50 [2]	selectivity ratio [3]	selectivity ratio [4]
CCON(C)C(=O)CCCP(=O)(OCOC(=O)OCc1coc(-c2ccccc2O)n1)OCOC(=O)OCc1coc(-c2ccccc2O)n1	0.42 µM	> 64 µM	7.1 µM	25.5 µM	61	3.6
Cc1ccc(C(=O)OCOP(=O)(CCCC(=O)N(C)O)OCOC(=O)c2ccc(C)cc2)cc1	0.57 µM	> 64 µM	11 µM	> 64 µM	> 112	> 5.8
CN(O)C(=O)CCCP(=O)(OCOC(=O)C(C)(C)C)OCOC(=O)C(C)(C)C	0.86 µM	> 56.1 µM	12 µM	> 51 µM	> 59	> 4.3
COc1ccc(C(=O)OCOP(=O)(CCCC(=O)N(C)O)OCOC(=O)c2ccc(OC)cc2)cc1	0.18 µM	> 64 µM	9.9 µM	33.1 µM	184	3.3
CCCCCCCC(=O)OCOP(=O)(OCOC(=O)CCCCCCC)C(CCC(=O)N(C)O)c1ccc(Cl)c(Cl)c1 (stereo not drawn)	0.44 µM	> 64 µM	11 µM	22.5 µM	51	2
CN(O)C(=O)CCCP(=O)(OCOC(=O)c1ccc(Cl)cc1)OCOC(=O)c1ccc(Cl)cc1	0.14 µM	> 64 µM	39 µM	31.2 µM	223	0.8
CCON(C)C(=O)CCCP(=O)(OCOC(=O)c1cccc(O)c1O)OCOC(=O)c1cccc(O)c1O	1.05 µM	> 64 µM	> 121 µM	> 64 µM	> 61	–
CN(O)C(=O)CCCP(=O)(OCOC(=O)c1ccccc1)OCOC(=O)c1ccccc1	0.12 µM	> 64 µM	8.2 µM	28.1 µM	234	3.4
CN(O)C(=O)CCC(c1ccc(Cl)c(Cl)c1)P(=O)(OCOC(=O)C(C)(C)C)OCOC(=O)C(C)(C)C (stereo not drawn)	0.44 µM	> 64 µM	> 112 µM	6.81 µM	15	–
CN(O)C(=O)CCCP(=O)(OCOC(=O)CCc1ccccc1)OCOC(=O)CCc1ccccc1	0.09 µM	> 64 µM	21 µM	> 64 µM	> 711	> 3
CCCCCCCC(=O)OCOP(=O)(CCCC(=O)N(C)O)OCOC(=O)CCCCCCC	0.03 µM	> 64 µM	0.39 µM	40.3 µM	1340	103
CCON(C)C(=O)CCCP(=O)(OCOC(=O)c1coc(-c2ccccc2O)n1)OCOC(=O)c1coc(-c2ccccc2O)n1	0.54 µM	> 64 µM	16 µM	26 µM	48	1.6
CCON(C)C(=O)CCCP(=O)(OCOC(=O)c1ccccc1O)OCOC(=O)c1ccccc1O	0.28 µM	> 64 µM	> 129 µM	> 64 µM	> 229	–
CN(O)C(=O)CCCP(=O)(OCOC(=O)c1ccc2ccccc2c1)OCOC(=O)c1ccc2ccccc2c1	0.25 µM	> 64 µM	51 µM	27.2 µM	109	0.53
CN(O)C(=O)CCCP(=O)(OCOC(=O)/C=C/c1ccccc1)OCOC(=O)/C=C/c1ccccc1	0.05 µM	> 64 µM	5.6 µM	30.3 µM	606	5.4
CN(O)C(=O)CCC(c1ccc(Cl)c(Cl)c1)P(=O)(OCOC(=O)/C=C/c1ccccc1)OCOC(=O)/C=C/c1ccccc1 (stereo not drawn)	4.42 µM	> 64 µM	> 97 µM	24.6 µM	5.6	–
O=CN(O)CCCP(=O)(O)O [FOSMIDOMYCIN SODIUM]	–	> 64 µM	–	> 64 µM	–	–
CN(O)C(=O)CCCP(=O)(OCOC(=O)OCCCc1ccccc1)OCOC(=O)OCCCc1ccccc1	0.09 µM	> 64 µM	2.6 µM	> 64 µM	> 711	> 25
CC(C)OC(=O)OCOP(=O)(CCCC(=O)N(C)O)OCOC(=O)OC(C)C	0.11 µM	> 64 µM	> 149 µM	> 50.7 µM	> 461	–
CN(O)C(=O)CCCP(=O)(OCOC(=O)c1cccc(Cl)c1)OCOC(=O)c1cccc(Cl)c1	0.14 µM	> 64 µM	54 µM	> 64 µM	> 457	> 1.2
CC(C)OC(=O)OCOP(=O)(OCOC(=O)OC(C)C)C(CCC(=O)N(C)O)c1ccc(Cl)c(Cl)c1 (stereo not drawn)	0.23 µM	> 64 µM	> 111 µM	7.58 µM	33	–
CN(O)C(=O)CCCP(=O)(OCOC(=O)CCCCc1ccccc1)OCOC(=O)CCCCc1ccccc1	0.05 µM	> 64 µM	2.4 µM	> 64 µM	> 1280	> 27
CCCCCCCCOC(=O)OCOP(=O)(CCCC(=O)N(C)O)OCOC(=O)OCCCCCCCC	0.07 µM	> 64 µM	0.7 µM	37.7 µM	539	54
